Results published in patent publication US11717502B2, “Blood flow improver” (WAKUNAGA PHARMACEUTICAL CO., LTD., priority 2017, dated 2023).

Assays:
[1] = test system: water immersion stressed rats; assay: Actions against depressed tail subcutaneous blood flow in water immersion stressed rats, compared between S1PC and SAC (Test Example 2); format: in vivo, male Wistar rats; details: for Effect of improving the tail skin blood flow with respect to the control group: 6.5 mg/kg single oral administration two hours before water immersion stress, one hour after end of stress, Bonferroni correction
Experimental: Actions against Depressed Tail Subcutaneous Blood Flow in Water Immersion Stressed Rats, Compared between S1PC and SAC
(§1) Seven-week-old male Wistar rats purchased from Japan SLC, Inc. (Hamamatsu City) were grouped by twelves, and preliminarily bred for two weeks. During preliminary breeding, handling was performed on the rats, and the rats were bred in a constant environment at a temperature of 23±1° C., a humidity of 50±10%, and a light/dark cycle of 12 hours (light period: 7 to 19 o'clock), and freely fed with artificial diet (CE-2, from CLEA Japan, inc.) and sterilized tap water.
The administration was performed by forced oral administration using a disposable feeding needle, and the fluid volume to be administered was 10 mL per kilogram of body weight of rat. As a sample to be administered, approximately 15 mg each of S1PC (a cis/trans mixture) manufactured in Production Example 2 and SAC were precisely weighed, and dissolved in 15 mL of purified water. These solutions were used as a stock solution. The solutions were properly diluted to give 6.5 mg/kg (body weight of rat) of dosage and the diluted solution was orally administered to each rat a single time. […]
The rats were allowed to stand still in a room conditioned at a temperature of 20±0.5° C. for 30 minutes or longer, and attached with a probe for blood flow measurement using a binding tape at a position 5 cm away from the base of tail under isoflurane anesthesia. The blood flow was measured for 5 minutes using a laser tissue blood flowmeter (FLO-C1, from Omegawave Inc.). Average blood flow for 3 minutes during which the stable blood flow was shown was determined as the tail skin blood flow of the individuals. The blood flow before water immersion was measured, and then S1PC, SAC or purified water was orally administered to the rats. […] The tail skin blood flow after the water immersion stress was measured one hour after the end of water immersion stress.
Measured values were given […] average±standard error. […]

[2] = test system: water immersion stressed rats; assay: Action of S1PC against decrease in tail skin blood flow in water immersion stressed rats (Test Example 1); format: in vivo, male Wistar rats
Experimental: Action of S1PC Against Decrease in Tail Skin Blood Flow in Water Immersion Stressed Rate
as §1, with “Eight-week-old” for “Seven-week-old”, “nines,” for “twelves,”
The administration was performed by forced oral administration using a disposable feeding needle, and the fluid volume to be administered was 10 mL per kilogram of body weight of rat. As a sample to be administered, approximately 15 mg of S1PC (a cis/trans mixture) manufactured in Production Example 2 was precisely weighed, and dissolved in 15 mL of purified water. This solution was used as a stock solution. The solution was properly diluted to give 6.5 mg/kg (body weight of rat) of dosage and the diluted solution was orally administered to each rat a single time. To each rat of a control group, a solvent (purified water) was orally administered in the same manner as described above.
The rats were allowed to stand still in a room conditioned at a temperature of 20±0.5° C. for 30 minutes or longer, and attached with a probe for blood flow measurement using a binding tape at a position 5 cm away from the base of tail under isoflurane anesthesia. The blood flow was measured for 5 minutes using a laser tissue blood flowmeter (FLO-C1, from Omegawave Inc.). Average blood flow for 3 minutes during which the stable blood flow was shown was determined as the tail skin blood flow of the individual. The blood flow before water immersion was measured, and then S1PC or purified water was orally administered to the rats. Two hours after the administration, the rats were immersed up to the xiphoid and below in water at 15° C. for 10 minutes, using a stainless-steel restraint cage. The tail skin blood flow after the water immersion stress was measured one hour after the end of water immersion stress.
Measured values were given as average±standard error.
The t-test was used for examination.

Which “Effect of improving the tail skin blood flow with respect to the control group” value (shortened to “Effect”) [1] does the source give for `C=CCSC[C@H](N)C(=O)O` [SAC, S-allylcysteine, reference compound] here?
Its value is “did not show a significant effect of improving the tail skin blood flow”.

`CC=CSC[C@H](N)C(=O)O` [S1PC, S-1-propenylcysteine] was tested. Which “Effect” value ([2]; 6.5 mg/kg single oral administration two hours before water immersion stress, t-test) did it give?
The value was “significant effect of improving the tail skin blood flow”.

And the “Degree of decrease in tail skin blood flow due to water immersion stress” value ([2]; 6.5 mg/kg single oral administration two hours before water immersion stress, versus control group)?
Its value is “smaller as compared with the control group”.

And the “Tail skin blood flow, one hour after end of water immersion stress” value ([2]; 6.5 mg/kg single oral dose two hours before water immersion (15° C., 10 minutes), average ± standard error)?
Its value is 2.21 ± 0.15 mL/min/100 g.

What about the “Tail skin blood flow, before water immersion stress” value ([2]; baseline before oral administration, average ± standard error, laser tissue blood flowmeter) of the same molecule?
Its value is 2.76 ± 0.15 mL/min/100 g.

And the “Effect” value [1]?
Its value is “showed a significant effect of improving the tail skin blood flow”.

What about the “Tail skin blood flow, S1PC group compared with SAC group” value ([1]; 6.5 mg/kg single oral dose each, one hour after end of water immersion stress, p<0.01) of the same molecule?
The value was “significantly higher value of tail skin blood flow, as compared with the SAC group”.
